A word on the LD50: it is the dose at which mortality reaches 50%.

For data set [1], the system named is serotonin uptake, human blood platelets. Put plainly: Inhibition of serotonin uptake by human blood platelets. It counts as cell-based. The conditions noted are these: Platelet, read-out: Inhibition of serotonin uptake I50. The text has this:
It is known that serotonin uptake by the blood platelets is a good model of the uptake of this amine by the neurons (cf. J. Tuomisto, J. Pharm., Pharmac., 26, 92 (1974). When applied to the study of medicaments, a method involving the use of blood platelets is of great interest because it allows the use of human cells so that its anticipation character is good.
The capacity of products to inhibit serotonin uptake or to induce serotonin release, was shown on human blood platelets, according to J. L. David and Coll. "Platelets Function and Thrombosis, a Review of Methods" p. 335 (Plenum Press, London, 1972).
1. Inhibition of Serotonin uptake
The results are expressed by a 50% inhibiting dose or I50 which represents the product dose, in micromoles per liter, which reduces the rate of serotonin uptake by 50%.

The test system of data set [2] is serotonin release, human blood platelets. Put plainly: Serotonin release from human blood platelets. It counts as cell-based. The settings on record: Platelet, product concentration 5 × 10^-5 moles per liter, relative to controls, read-out: Percent of increased serotonin release. The method, then:
"Platelets Function and Thrombosis, a Review of Methods" p.
The action of the products on serotonin release is tested at a concentration of 5×10^-5 moles per liter.

Data set [3] in a line: Acute oral toxicity in male CD1 mice. The settings on record: mouse, in vivo, 3 days of observation. The method, then:
The acute toxicity of the products has been established in the male CD1 (Charles RIVER) mice following oral administration. The LD50 calculated following 3 days of observation by the cumulative method of J. J. Reed and Coll. (Am. J. Hyg. 27, 493-1938) is 600 mg/kg for compounds of Examples 1 and 2 and about 400 mg/kg for the compound of Example 4.

Read-outs that look alike come from different tables or passages of the source.

Regarding `C1=C(CCc2c[nH]c3ccccc23)CCNC1` [Example 1, 3-[2-(1,2,5,6-tetrahydro-4-pyridyl)-ethyl]-indole], in data set [1] (Homo sapiens), the IC50 was determined as 55 nM. Also, the activation at 50 µM in data set [2] is 85%. The molecule further returned an LD50 at 72 h in data set [3] of 600 mg/kg.

With `CC(Cc1c[nH]c2ccccc12)C1=CCNCC1` (stereo not drawn) [Example 2, 3-[2-(1,2,5,6-tetrahydro-4-pyridyl)-2-methyl-ethyl]-indole], in data set [1] (Homo sapiens), the IC50 was 40 nM. Further, in data set [2], the activation at 50 µM worked out at 68%. The LD50 at 72 h in data set [3] was found to be 600 mg/kg.

As for `CC(Cc1c[nH]c2ccccc12)C1CCNCC1` (stereo not drawn) [Example 4, 3-[2-(4-piperidyl)-2-methyl-ethyl]-indole], the IC50 in data set [1] (Homo sapiens) worked out at 10 nM. Further, the activation at 50 µM in data set [2] stood at 76%. Also, in data set [3], the LD50 at 72 h was about 400 mg/kg.

Regarding `CN(C)CCCN1c2ccccc2CCc2ccccc21` [Imipramine, imipramine, reference compound], the IC50 in data set [1] (Homo sapiens) was 400 nM. In data set [2], the activation at 50 µM worked out at 13%.

For the molecule `c1ccc2c(CCC3CCNCC3)c[nH]c2c1` [Indalpine, 3-[2-(4-piperidyl)-ethyl]-indole, reference compound], the IC50 in data set [1] (human blood platelets, dose reducing the rate of serotonin uptake by 50%) was 35 nM. Moreover, the activation at 50 µM in data set [2] amounted to 22%.

On to `CC(N)Cc1ccc(Cl)cc1` (stereo not drawn) [p-chloro-amphetamine, p-chloroamphetamine, reference compound], for which the IC50 in data set [1] (Homo sapiens) was found to be 12000 nM. The activation at 50 µM in data set [2] was determined as 51%.
